From patent publication US5057503A, “Derivativized polysaccharides with biologic activity, method of their isolation, and uses therefor” (The Brigham and Women's Hospital, priority 1989, dated 1991)

Test system: human monocyte β-glucan receptors
Experiment: Inhibition of adherent monocyte phagocytosis of zymosan particles after pretreatment with isolated carbohydrates
Type: cell-based
Conditions: for phagocytosis-inhibiting activity after derivatization with 2-aminopyridine (in words): 100 ng/ml tested; for activity after derivatization with 2-aminopyridine (in words): as much as 800 ng/ml in the functional monocyte assays; for phagocytosis-inhibiting activity / interaction with human monocyte β-glucan receptors (in words): concentration not given

Row | SMILES | phagocytosis-inhibiting activity after derivatization with 2-aminopyridine (in words) | activity after derivatization with 2-aminopyridine (in words) | phagocytosis-inhibiting activity / interaction with human monocyte β-glucan receptors (in words) | effect on monocyte ingestion of zymosan (in words) (500 ng/ml to 100 μg/ml, without derivatization) | proportion of monocytes ingesting zymosan after pretreatment (100 μg/ml, without derivatization, without pretreatment 67% (synthetic β-heptaglucoside) and 50% (maltoheptose)) [%]
1 | OC[C@H]1O[C@H](O[C@H]2[C@H](O)[C@@H](O)[C@@H](O[C@H]3[C@H](O)[C@@H](O)[C@@H](O[C@H]4[C@H](O)[C@@H](O)[C@@H](O[C@H]5[C@H](O)[C@@H](O)[C@@H](O[C@H]6[C@H](O)[C@@H](O)[C@@H](O[C@H]7[C@H](O)[C@@H](O)C(Nc8ccccn8)O[C@@H]7CO)O[C@@H]6CO)O[C@@H]5CO)O[C@@H]4CO)O[C@@H]3CO)O[C@@H]2CO)[C@H](O)[C@@H](O)[C@@H]1O (some centres unmarked) [Derivatized maltoheptose] | not acquired | remained inactive | remained inactive |  | 
2 | OC[C@H]1O[C@@H](OC[C@H]2O[C@@H](OC[C@H]3O[C@@H](OC[C@H]4O[C@@H](OC[C@H]5OC(Nc6ccccn6)[C@H](O)[C@@H](O)[C@@H]5O)[C@H](O)[C@@H](O[C@@H]5O[C@H](CO)[C@@H](O)[C@H](O)[C@H]5O)[C@@H]4O)[C@H](O)[C@@H](O)[C@@H]3O)[C@H](O)[C@@H](O[C@@H]3O[C@H](CO)[C@@H](O)[C@H](O)[C@H]3O)[C@@H]2O)[C@H](O)[C@@H](O)[C@@H]1O (stereo partly drawn) [Derivatized synthetic β-heptaglucoside] | not acquired | remained inactive | remained inactive |  | 
3 | OC[C@H]1O[C@H](O[C@H]2[C@H](O)[C@@H](O)[C@@H](O[C@H]3[C@H](O)[C@@H](O)[C@@H](O[C@H]4[C@H](O)[C@@H](O)[C@@H](O[C@H]5[C@H](O)[C@@H](O)[C@@H](O[C@H]6[C@H](O)[C@@H](O)[C@@H](O[C@H]7[C@H](O)[C@@H](O)C(O)O[C@@H]7CO)O[C@@H]6CO)O[C@@H]5CO)O[C@@H]4CO)O[C@@H]3CO)O[C@@H]2CO)[C@H](O)[C@@H](O)[C@@H]1O (some centres unmarked) [Maltoheptose] |  |  |  | no effect | 52
